Counter-ions that a name gives are not always drawn.
What was measured:
[1] = system: Cdc7 (pS53MCM2 levels in HCT116 cells); test: Cdc7 Cell Pharmacodynamics Assay Method 1: pS53MCM2 levels in HCT116 cells, 6 hours; type: cell-based; conditions: for EC50: Homo sapiens, HCT-116, 6 h, read-out: Biomarker Method 1 (pEC50) (converted)
Excerpt: This protocol describes a method to investigate the inhibition of Cdc7 activity of compounds by measuring pS53MCM2 levels in cells after treatment.
• HCT116 cells (wild type P53 positive) • McCoys 5A media (PAA Laboratories Ltd, E15-022) • 10% FCS (Sera Laboratories International Ltd, EU000F Batch:108005) • 100× L-Glutamine (Invitrogen, 25030-024) • D-PBS without CaCl2 and MgCl2 (Invitrogen, ref 14190-094) • Trypsin/EDTA (Invitrogen 25300-054) • 2% BSA in PBS • Cell Extraction Buffer (Invitrogen FNN0011) • Protease inhibitor cocktail (Sigma P-2714) • PMSF 0.3M stock in DMSO (Sigma P7626) • Antibody-rabbit pMCM2 Ser53 (Bethyl #A300-756A) • Antibody-goat MCM2 (Bethyl #A300-122A) • Antibody-goat Anti Rabbit IgG HRP (Perbio Science UK Ltd 31462) • 1×PBS • FACE Wash buffer (0.02% Triton X100 in 1×PBS) • SuperSignal ELISA Pico Chemiluminescent Substrate (Perbio Science UK Ltd 37070) Method • 72 hours prior to the start of the experiment plate 1×10^6 HCT 116 cells in a 150 cm^2 flask in complete McCoys 5A media (+10% FCS+1× L-glutamine). • Plate 20,000 HCT116 cells per well in standard TC treated 96 well plate in 100 μL complete McCoys 5A media. • Allow cells to settle overnight in incubator set at 37° C. and 5% CO2. • Remove intermediate plate from fridge and place at 37° C. overnight to allow to equilibrate. • Cell treatment: cell assay plate 100 μL; daughter to cell transfer volume 3.33 μL; daughter volume 45 μL; mother plate to daughter volume 5 μL. • Once all cells are treated remove the cells to the incubator and incubate for 6 hours. • Dilute the capture antibody (total MCM2#A300-122A) 1 in 250 in the required volume of PBS (5 mL per assay plate) and add 50 μL to each well of a Hybond plate excluding wells 12E to 12H. In these wells add 50 μL PBS. Seal the plate and incubate at room temperature for a minimum of 2 hours. • Defrost aliquot of Invitrogen Cell Extraction Buffer (FNN0011) on ice and supplement with appropriate volume of both Sigma protease inhibitor cocktail (P-2714) and PMSF (final conc 1 mM from a 1 M stock in DMSO). • After the 6 hour cell treatment time tap out the media from the assay plates and place them in the −70° C. freezer for at least 5 minutes. • Remove plates from freezer and add 20 μL of ice cold complete lysis buffer on ice. Incubate cells for 30 minutes at 4° C. • Add 80 μL per well 2% BSA. • Transfer 80 μL from the lysis plate to the same wells in the capture/ELISA plate. Cover with plate seal and incubate plates overnight at 4° C. • Wash plates with PBS, remove any residual remaining liquid and add 50 μL per well of pMCM2 Ser53 antibody (#A300-756A) diluted 1 in 100 in 2% BSA. Cover plate and incubate at room temperature for 2 hours with gentle shaking. • Wash plates with PBS, remove any residual remaining liquid and Incubate with 50 μL goat anti rabbit antibody (1 in 800 dilution in 2% BSA) for 1 hour at room temperature. • Wash plates with PBS, remove any residual remaining liquid and add 50 μL mixed SuperSignal Pico substrate. • Incubate each plate for 5 minutes at room temperature shielding the plates from direct light (with a cover plate). Read plates with the luminescent detection. Method 2A and 2B

Cdc7/ASK = Cdc7/ASK (Homo sapiens, UniProt O00311); test: Cdc7 Biochemical Assay Method 1: 384 well ELISA, whole protein substrate MCM2, antibody against Phospho MCM2 (S53); set-up: purchased; conditions: 2 μM ATP, read-out: Biochemical Method 1 (pIC50) (converted)
Sequence of Cdc7/ASK (O00311 whole entry): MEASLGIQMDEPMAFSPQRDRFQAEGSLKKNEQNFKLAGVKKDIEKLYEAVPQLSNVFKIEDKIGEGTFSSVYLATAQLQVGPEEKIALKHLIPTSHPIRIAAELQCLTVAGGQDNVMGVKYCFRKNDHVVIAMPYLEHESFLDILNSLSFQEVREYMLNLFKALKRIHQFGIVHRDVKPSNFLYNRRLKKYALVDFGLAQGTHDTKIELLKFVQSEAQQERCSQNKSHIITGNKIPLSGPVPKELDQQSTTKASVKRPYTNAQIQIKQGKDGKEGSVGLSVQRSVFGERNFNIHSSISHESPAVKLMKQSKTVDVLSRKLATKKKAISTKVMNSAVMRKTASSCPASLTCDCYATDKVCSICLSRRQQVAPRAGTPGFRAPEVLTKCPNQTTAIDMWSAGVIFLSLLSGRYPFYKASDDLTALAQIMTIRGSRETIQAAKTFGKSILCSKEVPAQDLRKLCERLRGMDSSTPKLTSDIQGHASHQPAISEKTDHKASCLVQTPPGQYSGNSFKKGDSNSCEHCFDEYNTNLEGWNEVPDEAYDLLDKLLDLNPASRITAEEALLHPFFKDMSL
Sequence of Cdc7/ASK (Q9UBU7 whole entry partner): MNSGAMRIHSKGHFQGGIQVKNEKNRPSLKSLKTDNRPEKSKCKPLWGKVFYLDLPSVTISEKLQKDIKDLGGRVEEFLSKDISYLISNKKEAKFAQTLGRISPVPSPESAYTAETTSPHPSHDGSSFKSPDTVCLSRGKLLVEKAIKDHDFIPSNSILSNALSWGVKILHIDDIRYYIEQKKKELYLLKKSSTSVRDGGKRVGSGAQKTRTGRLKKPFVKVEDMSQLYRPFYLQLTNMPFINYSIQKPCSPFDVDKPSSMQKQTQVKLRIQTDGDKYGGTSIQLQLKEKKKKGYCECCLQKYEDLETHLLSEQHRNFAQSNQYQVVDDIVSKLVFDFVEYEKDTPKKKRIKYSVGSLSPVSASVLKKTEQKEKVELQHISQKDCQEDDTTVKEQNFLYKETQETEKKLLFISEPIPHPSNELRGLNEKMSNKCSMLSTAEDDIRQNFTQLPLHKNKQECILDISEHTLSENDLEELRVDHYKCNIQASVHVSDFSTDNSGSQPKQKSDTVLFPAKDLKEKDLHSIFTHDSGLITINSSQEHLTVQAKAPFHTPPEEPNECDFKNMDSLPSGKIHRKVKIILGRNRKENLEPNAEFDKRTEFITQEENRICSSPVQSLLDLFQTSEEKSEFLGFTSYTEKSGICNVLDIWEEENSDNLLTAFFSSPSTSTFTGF
How it was run: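 MCM2 protein substrate was coated on nickel-chelate plates, then Cdc7/ASK was added with 2 μM ATP in 50 mM Tris-HCl pH 8.5, 10 mM MgCl2, 1 mM DTT, 4% DMSO, 90 min at room temperature. Phospho-MCM2 (S53) was detected by ELISA with an AP secondary and PNPP absorbance. IC50 was derived from % inhibition versus no-compound and no-enzyme controls.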

Row | EC50 [1] | IC50 (Cdc7/ASK) | Biomarker Method 1 (pEC50) [1] | Compound
1 | 871 nM | 19.5 nM |  | O=c1[nH]c(-c2ccncc2)nc(N2CCN(CC(F)(F)C(F)F)CC2)c1Cl [Compound 152]
2 | 126 nM | 1.78 nM |  | N#CC1CCN(c2nc(-c3ccncc3)[nH]c(=O)c2Cl)CC1 [Compound 153]
3 | 66.1 nM | 3.98 nM |  | CC(F)(F)C1CN(c2nc(-c3ccncc3)[nH]c(=O)c2Cl)CCN1 (stereo not shown) [Compound 156]
4 | 79.4 nM | 2.95 nM |  | CC(C)(C)[C@H]1CN(c2nc(-c3ccncc3)[nH]c(=O)c2Cl)CCN1 [Compound 157]
5 | 209 nM | 6.61 nM |  | O=c1[nH]c(-c2ccncc2)nc(N2CCOC(C(F)(F)F)C2)c1Cl (stereo not shown) [Compound 159]
6 |  | 1.62 nM | 7.50 | CC(C)(C)[C@H]1CN(c2nc(-c3ccnc(F)c3)[nH]c(=O)c2Cl)CCN1.Cl [Compound 160]
7 | 724 nM | 20.9 nM |  | O=c1[nH]c(-c2ccncc2)nc(N2CCN[C@@H](Cc3ccccc3)C2)c1Cl [Compound 164]
8 | 2820 nM | 35.5 nM |  | C[C@@H]1CN(c2nc(-c3ccncc3)[nH]c(=O)c2Cl)[C@H](C)CN1 [Compound 166]
9 | 832 nM | 8.13 nM |  | O=c1[nH]c(-c2ccncc2)nc(N2CCCC(O)C2)c1Cl (stereo not shown) [Compound 167]
10 | 562 nM | 30.2 nM |  | COc1ccc(C2CN(c3nc(-c4ccncc4)[nH]c(=O)c3Cl)CCN2)cc1 (stereo not shown) [Compound 169]
11 | 72.4 nM | 1.17 nM |  | C[C@H]1CN(c2nc(-c3ccnc(F)c3)[nH]c(=O)c2Cl)CCN1 [Compound 171]
12 |  | 20.9 nM | 5.56 | O=c1[nH]c(-c2ccncc2)nc(N2CCCC(C(F)(F)F)C2)c1Cl (stereo not shown) [Compound 176]
13 | 214 nM | 5.13 nM |  | O=c1[nH]c(-c2ccncc2)nc(N2CCNC(c3cccs3)C2)c1Cl (stereo not shown) [Compound 177]
14 | 132 nM | 2.4 nM |  | C[C@H]1CN(c2nc(-c3ccncc3)[nH]c(=O)c2Cl)CCN1CC(F)(F)F [Compound 181, 5-chloro-4-[(3S)-3-methyl-4-(2,2,2-trifluoroethyl)piperazin-1-yl]-2-(4-pyridyl)-1H-pyrimidin-6-one]
15 | 61.7 nM | 2 nM |  | CC(C)[C@H]1CN(c2nc(-c3ccncc3)[nH]c(=O)c2Cl)CCN1 [Compound 309]
16 | 58.9 nM | 3.47 nM |  | CC(C)C1CN(c2nc(-c3ccnc(F)c3)[nH]c(=O)c2Cl)CCN1 (stereo not shown) [Compound 310]
17 | 2400 nM | 2.34 nM |  | CC1(C)CN(c2nc(-c3ccncc3)[nH]c(=O)c2Cl)CCN1 [Compound 361]
18 | 110 nM | 1.95 nM |  | O=c1[nH]c(-c2ccncc2)nc(N2CCNCC2)c1Cl [Compound 416, 5-chloro-4-piperazin-1-yl-2-(4-pyridyl)-1H-pyrimidin-6-one hydrochloride]

Further lines, the molecule ahead of its results:

Row | Compound | EC50 [1] | IC50 (Cdc7/ASK) | Biomarker Method 1 (pEC50) [1]
19 | O=c1[nH]c(-c2ccncc2)nc(N2CCCC(CO)C2)c1Cl (stereo not shown) [Compound 123] | 224 nM | 9.33 nM | 
20 | O=c1[nH]c(-c2ccncc2)nc(N2CCN(CCO)CC2)c1Cl [Compound 125] | 912 nM | 40.7 nM | 
21 | O=c1[nH]c(-c2ccncc2)nc(N2CCC(F)(F)CC2)c1Cl [Compound 127] | 224 nM | 45.7 nM | 
22 | O=c1[nH]c(-c2ccncc2)nc(N2CCSCC2)c1Cl [Compound 128] | 79.4 nM | 2.57 nM | 
23 | O=c1[nH]c(-c2ccncc2)nc(N2CCN[C@@H](CO)C2)c1Cl [Compound 129] | 871 nM | 2.09 nM | 
24 | O=c1[nH]c(-c2ccncc2)nc(N2CCCC(F)C2)c1Cl (stereo not shown) [Compound 131] | 112 nM | 8.13 nM | 
25 | O=c1[nH]c(-c2ccncc2)nc(N2CCCC(F)(F)C2)c1Cl [Compound 132] | 33.9 nM | 1.95 nM | 
26 | O=c1[nH]c(-c2ccncc2)nc(N2CC3C(C2)C3(F)F)c1Cl (stereo not shown) [Compound 134] | 692 nM | 19.1 nM | 
27 | O=c1[nH]c(-c2ccncc2)nc(N2CCC(C(F)(F)F)C2)c1Cl (stereo not shown) [Compound 135] | 661 nM | 23.4 nM | 
28 | O=c1[nH]c(-c2ccncc2)nc(N2CCCN(CCO)CC2)c1Cl [Compound 136] | 2090 nM | 20 nM | 
29 | C[C@@H]1CN(c2nc(-c3ccncc3)[nH]c(=O)c2Cl)CCN1 [Compound 140] | 457 nM | 6.03 nM | 
30 | O=c1[nH]c(-c2ccncc2)nc(N2CCCN(CC(F)(F)F)CC2)c1Cl [Compound 142] | 661 nM | 15.5 nM | 
31 | CCCN1CCCN(c2nc(-c3ccncc3)[nH]c(=O)c2Cl)CC1 [Compound 143] | 407 nM | 21.4 nM | 
32 | O=C(N1CCCN(c2nc(-c3ccncc3)[nH]c(=O)c2Cl)CC1)C(F)(F)F [Compound 144] | 589 nM | 9.33 nM | 
33 | CS(=O)(=O)N1CCCN(c2nc(-c3ccncc3)[nH]c(=O)c2Cl)CC1 [Compound 145] | 269 nM | 2.51 nM | 
34 | O=c1[nH]c(-c2ccncc2)nc(N2CCN(CC(F)(F)F)CC2)c1Cl [Compound 146] | 229 nM | 7.24 nM | 
35 | C#CCN1CCN(c2nc(-c3ccncc3)[nH]c(=O)c2Cl)CC1 [Compound 150] | 427 nM | 14.1 nM | 
36 | O=c1[nH]c(-c2ccncc2)nc(N2CCC3(CC2)COC3)c1Cl [Compound 151] | 501 nM | 34.7 nM | 
37 | O=c1[nH]c(-c2ccncc2)nc(N2C3CCCC2COC3)c1Cl [Compound 154] | 63.1 nM | 2.45 nM | 
38 | O=c1[nH]c(-c2ccncc2)nc(N2CCNC3(CCC3)C2)c1Cl [Compound 158] | 1740 nM | 19.5 nM | 

Reference: patent US10919896B2, “Preparation and uses of pyrimidinone derivatives” (Cancer Research Technology Limited, priority 2016, dated 2021)
